The format of data set [1] is physicochemical. On the procedure:
Without wishing to be bound, it is believed that separation is more favored at higher temperatures at least in part due to factors including conformational changes as well as solubility differences that are a function of temperature. At room temperature, the solubility of Reb B in a 94 weight percent ethanol solution saturated with Reb A is about 0.3 g per 100 g of solvent, and the solubility of Reb D is about 0.01 g per 100 g. At 100° C., concentrations of Reb D as high as 0.2 g/100 g are observed, and concentrations of Reb B as high as 0.5 g/100 g are observed. The solubility of Reb A in 94 wt % ethanol varies to a much smaller extent.

The conditions of data set [2]: relative to sucrose; background statement; cited from earlier work.

Take `C=C1C[C@@]23CC[C@H]4[C@@](C)(CCC[C@@]4(C)C(=O)O[C@@H]4O[C@H](CO)[C@@H](O)[C@H](O)[C@H]4O[C@@H]4O[C@H](CO)[C@@H](O)[C@H](O)[C@H]4O)[C@@H]2CC[C@]1(O[C@@H]1O[C@H](CO)[C@@H](O)[C@H](O[C@@H]2O[C@H](CO)[C@@H](O)[C@H](O)[C@H]2O)[C@H]1O[C@@H]1O[C@H](CO)[C@@H](O)[C@H](O)[C@H]1O)C3` [Reb D, rebaudioside D]: in data set [1], the “concentrations observed in solution” value is reported as ≤ 0.2 g/100 g and the solubility entry was “about 0.01 g per 100 g of solvent”. For rebaudioside B [Reb B], in that order: ≤ 0.5 g/100 g and “about 0.3 g per 100 g of solvent”. With `C=C1C[C@@]23CC[C@H]4[C@@](C)(CCC[C@@]4(C)C(=O)O[C@@H]4O[C@H](CO)[C@@H](O)[C@H](O)[C@H]4O)[C@@H]2CC[C@]1(O[C@@H]1O[C@H](CO)[C@@H](O)[C@H](O[C@@H]2O[C@H](CO)[C@@H](O)[C@H](O)[C@H]2O)[C@H]1O[C@@H]1O[C@H](CO)[C@@H](O)[C@H](O)[C@H]1O)C3` [Rebaudioside A, rebaudioside A], the “sweetness, times the sweetness of sucrose” value in data set [2] is given as 250-450 times.

(Values after patent US9024012B2, “Methods to treat mixtures of glycosides to obtain one or more of these glycosides in more pure form” (Cargill, Incorporated, priority 2010, dated 2015).)
